Assay results published in patent publication US20230085307A1, “PYRIDAZINONE COMPOUND AND HERBICIDE” (NISSAN CHEMICAL CORPORATION, priority 2019, published 2023).

Key:
barnyard grass [1] = test: Test Example 4: herbicidal effect by soil treatment (Table 19, symbol H); format: in vivo, barnyard grass (Echinochloa crus-galli); details: amount of applied herbicide 320 g/ha
Outline: (§1)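 Scoring uses the grading scale of an earlier test, three weeks post-application. Treatment consists of spraying a diluted emulsion formulation across the surface of sterilized diluvial soil in which seeds are buried near 1.5 cm deep; boxes are kept in a greenhouse between 25° C. and 30° C.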

green foxtail [2] = test: Test Example 4: herbicidal effect by soil treatment (Table 19, symbol G); format: in vivo, green foxtail (Setaria viridis); details: amount of applied herbicide 320 g/ha
Outline: as §1

velvetleaf [3] = test: Test Example 4: herbicidal effect by soil treatment (Table 19, symbol M); format: in vivo, velvetleaf (Abutilon theophrasti); details: amount of applied herbicide 320 g/ha
Outline: as §1

rice flat sedge = test: Test Example 3: herbicidal effect by foliage application, Wagner pot (Table 18, symbol E); format: in vivo, rice flat sedge (Cyperus iria); details: 320 g/ha
Outline: (§2)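 Plants were sown in alluvial soil held under 0.1–0.5 cm standing water and grown 14 days in a greenhouse at 25–30 °C. An emulsifiable formulation, water-diluted to the set dose, was then sprayed onto the foliage, and effects were scored three weeks later using previously defined criteria.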

Italian ryegrass [4] = test: Test Example 4: herbicidal effect by soil treatment (Table 19, symbol K); format: in vivo, Italian ryegrass (Lolium multiflorum); details: amount of applied herbicide 320 g/ha
Outline: as §1

blackgrass [5] = test: Test Example 5: herbicidal effect by foliage application, plastic box (Table 20, symbol J); format: in vivo, blackgrass (Alopecurus myosuroides); details: 320 g/ha, foliage application after 14-day growth, evaluated three weeks after application
Outline: (§3)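 Post-emergence foliar test in sterilized diluvial soil. Compound applied as water-diluted emulsion at a predetermined rate to 14-day-old plants; evaluation at three weeks.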

persian speedwell [6] = test: Test Example 5: herbicidal effect by foliage application, plastic box (Table 20, symbol R); format: in vivo, Persian speedwell (Veronica persica); details: 320 g/ha, foliage application after 14-day growth, evaluated three weeks after application
Outline: as §3

velvetleaf [7] = test: Test Example 5: herbicidal effect by foliage application, plastic box (Table 20, symbol M); format: in vivo, velvetleaf (Abutilon theophrasti); details: 320 g/ha, foliage application after 14-day growth, evaluated three weeks after application
Outline: as §3

lambsquarters [8] = test: Test Example 5: herbicidal effect by foliage application, plastic box (Table 20, symbol O); format: in vivo, lambsquarters (Chenopodium album); details: 320 g/ha, foliage application after 14-day growth, evaluated three weeks after application
Outline: as §3

redroot pigweed [9] = test: Test Example 4: herbicidal effect by soil treatment (Table 19, symbol N); format: in vivo, redroot pigweed (Amaranthus retroflexus); details: amount of applied herbicide 320 g/ha
Outline: as §1

persian speedwell [10] = test: Test Example 4: herbicidal effect by soil treatment (Table 19, symbol R); format: in vivo, Persian speedwell (Veronica persica); details: amount of applied herbicide 320 g/ha
Outline: as §1

barnyard grass [11] = test: Test Example 3: herbicidal effect by foliage application, Wagner pot (Table 18, symbol H); format: in vivo, barnyard grass (Echinochloa crus-galli); details: 320 g/ha
Outline: as §2

green foxtail [12] = test: Test Example 5: herbicidal effect by foliage application, plastic box (Table 20, symbol G); format: in vivo, green foxtail (Setaria viridis); details: 320 g/ha, foliage application after 14-day growth, evaluated three weeks after application
Outline: as §3

windgrass [13] = test: Test Example 5: herbicidal effect by foliage application, plastic box (Table 20, symbol L); format: in vivo, windgrass (Apera spica-venti); details: 320 g/ha, foliage application after 14-day growth, evaluated three weeks after application
Outline: as §3

chickweed [14] = test: Test Example 4: herbicidal effect by soil treatment (Table 19, symbol P); format: in vivo, common chickweed (Stellaria media); details: amount of applied herbicide 320 g/ha
Outline: as §1

late watergrass = test: Test Example 1: herbicidal activity, application before weed generation under submerged conditions (Table 16, symbol A); format: in vivo, late watergrass (Echinochloa oryzicola); details: amount of applied herbicide 320 g/ha
Outline: (§4)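 Emulsion formulation, water-diluted to set dose, was put onto the flooded surface (4 cm depth, alluvial soil) the same day weeds were sown and 2.5-leaf rice transplanted. After 3 weeks at 25-30 °C under glass, each species was rated 0 (≤5% kill) to 5 (≥90% kill).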

Chinese sprangletop = test: Test Example 3: herbicidal effect by foliage application, Wagner pot (Table 18, symbol D); format: in vivo, chinese sprangletop (Leptochloa chinensis); details: 320 g/ha
Outline: as §2

southern crabgrass [15] = test: Test Example 4: herbicidal effect by soil treatment (Table 19, symbol F); format: in vivo, southern crabgrass (Digitaria ciliaris); details: amount of applied herbicide 320 g/ha
Outline: as §1

lambsquarters [16] = test: Test Example 4: herbicidal effect by soil treatment (Table 19, symbol O); format: in vivo, lambsquarters (Chenopodium album); details: amount of applied herbicide 320 g/ha
Outline: as §1

oval-leafed pondweed = test: Test Example 1: herbicidal activity, application before weed generation under submerged conditions (Table 16, symbol C); format: in vivo, oval-leafed pondweed (Monochoria vaginalis); details: amount of applied herbicide 320 g/ha
Outline: as §4

wild oat [17] = test: Test Example 5: herbicidal effect by foliage application, plastic box (Table 20, symbol I); format: in vivo, wild oat (Avena fatua); details: 320 g/ha, foliage application after 14-day growth, evaluated three weeks after application
Outline: as §3

Italian ryegrass [18] = test: Test Example 5: herbicidal effect by foliage application, plastic box (Table 20, symbol K); format: in vivo, Italian ryegrass (Lolium multiflorum); details: 320 g/ha, foliage application after 14-day growth, evaluated three weeks after application
Outline: as §3

Japanese bulrush = test: Test Example 1: herbicidal activity, application before weed generation under submerged conditions (Table 16, symbol B); format: in vivo, Japanese bulrush (Schoenoplectus juncoides); details: amount of applied herbicide 320 g/ha
Outline: as §4

windgrass [19] = test: Test Example 4: herbicidal effect by soil treatment (Table 19, symbol L); format: in vivo, windgrass (Apera spica-venti); details: amount of applied herbicide 320 g/ha
Outline: as §1

barnyard grass [20] = test: Test Example 5: herbicidal effect by foliage application, plastic box (Table 20, symbol H); format: in vivo, barnyard grass (Echinochloa crus-galli); details: 320 g/ha, foliage application after 14-day growth, evaluated three weeks after application
Outline: as §3

southern crabgrass [21] = test: Test Example 5: herbicidal effect by foliage application, plastic box (Table 20, symbol F); format: in vivo, southern crabgrass (Digitaria ciliaris); details: 320 g/ha, foliage application after 14-day growth, evaluated three weeks after application
Outline: as §3

wild oat [22] = test: Test Example 4: herbicidal effect by soil treatment (Table 19, symbol I); format: in vivo, wild oat (Avena fatua); details: amount of applied herbicide 320 g/ha
Outline: as §1

redroot pigweed [23] = test: Test Example 5: herbicidal effect by foliage application, plastic box (Table 20, symbol N); format: in vivo, redroot pigweed (Amaranthus retroflexus); details: 320 g/ha, foliage application after 14-day growth, evaluated three weeks after application
Outline: as §3

chickweed [24] = test: Test Example 5: herbicidal effect by foliage application, plastic box (Table 20, symbol P); format: in vivo, common chickweed (Stellaria media); details: 320 g/ha, foliage application after 14-day growth, evaluated three weeks after application
Outline: as §3

blackgrass [25] = test: Test Example 4: herbicidal effect by soil treatment (Table 19, symbol J); format: in vivo, blackgrass (Alopecurus myosuroides); details: amount of applied herbicide 320 g/ha
Outline: as §1

With `CCOc1ccccc1-c1sc2c(F)cccc2c1-c1c(O)c(C)nn(C)c1=O` [4-007] the “Herbicidal effect by soil treatment, H: barnyard grass” value (barnyard grass [1]) was 0 (Herbicidal rate of 5% or less (almost no effect)), the “Herbicidal effect by soil treatment, G: green foxtail” value (green foxtail [2]) was 0 (Herbicidal rate of 5% or less (almost no effect)) and the “Herbicidal effect by soil treatment, M: velvetleaf” value (velvetleaf [3]) was 0 (Herbicidal rate of 5% or less (almost no effect)). The “herbicidal effect on rice flat sedge (E)” value (rice flat sedge) was 5 (Herbicidal rate of 90% or more (almost completely withered)), the “Herbicidal effect by soil treatment, K: Italian ryegrass” value (Italian ryegrass [4]) was 0 (Herbicidal rate of 5% or less (almost no effect)) and the “herbicidal effect on J: blackgrass (evaluation grade 0-5)” value (blackgrass [5]) was 4 (Herbicidal rate of 70% or more and less than 90%). The “herbicidal effect on R: persian speedwell (evaluation grade 0-5)” value (persian speedwell [6]) was 5 (Herbicidal rate of 90% or more (almost completely withered)), the “herbicidal effect on M: velvetleaf (evaluation grade 0-5)” value (velvetleaf [7]) was 3 (Herbicidal rate of 40% or more and less than 70%) and the “herbicidal effect on O: lambsquarters (evaluation grade 0-5)” value (lambsquarters [8]) was 1 (Herbicidal rate of 5% or more and less than 20%). The “Herbicidal effect by soil treatment, N: redroot pigweed” value (redroot pigweed [9]) was 0 (Herbicidal rate of 5% or less (almost no effect)), the “Herbicidal effect by soil treatment, R: persian speedwell” value (persian speedwell [10]) was 3 (Herbicidal rate of 40% or more and less than 70%) and the “herbicidal effect on barnyard grass (H)” value (barnyard grass [11]) was 5 (Herbicidal rate of 90% or more (almost completely withered)). For the same compound, the “herbicidal effect on G: green foxtail (evaluation grade 0-5)” value (green foxtail [12]) was 5 (Herbicidal rate of 90% or more (almost completely withered)), the “herbicidal effect on L: windgrass (evaluation grade 0-5)” value (windgrass [13]) was 2 (Herbicidal rate of 20% or more and less than 40%) and the “Herbicidal effect by soil treatment, P: chickweed” value (chickweed [14]) was 3 (Herbicidal rate of 40% or more and less than 70%). The “Herbicidal effect, A: late watergrass” value (late watergrass) was 3 (Herbicidal rate of 40% or more and less than 70%), the “herbicidal effect on Chinese sprangletop (D)” value (Chinese sprangletop) was 3 (Herbicidal rate of 40% or more and less than 70%) and the “Herbicidal effect by soil treatment, F: southern crabgrass” value (southern crabgrass [15]) was 0 (Herbicidal rate of 5% or less (almost no effect)). The “Herbicidal effect by soil treatment, O: lambsquarters” value (lambsquarters [16]) was 0 (Herbicidal rate of 5% or less (almost no effect)), the “Herbicidal effect, C: oval-leafed pondweed” value (oval-leafed pondweed) was 0 (Herbicidal rate of 5% or less (almost no effect)) and the “herbicidal effect on I: wild oat (evaluation grade 0-5)” value (wild oat [17]) was 2 (Herbicidal rate of 20% or more and less than 40%). The “herbicidal effect on K: Italian ryegrass (evaluation grade 0-5)” value (Italian ryegrass [18]) was 4 (Herbicidal rate of 70% or more and less than 90%), the “Herbicidal effect, B: Japanese bulrush” value (Japanese bulrush) was 0 (Herbicidal rate of 5% or less (almost no effect)) and the “Herbicidal effect by soil treatment, L: windgrass” value (windgrass [19]) was 0 (Herbicidal rate of 5% or less (almost no effect)). The “herbicidal effect on H: barnyard grass (evaluation grade 0-5)” value (barnyard grass [20]) was 4 (Herbicidal rate of 70% or more and less than 90%), the “herbicidal effect on F: southern crabgrass (evaluation grade 0-5)” value (southern crabgrass [21]) was 3 (Herbicidal rate of 40% or more and less than 70%) and the “Herbicidal effect by soil treatment, I: wild oat” value (wild oat [22]) was 0 (Herbicidal rate of 5% or less (almost no effect)). The “herbicidal effect on N: redroot pigweed (evaluation grade 0-5)” value (redroot pigweed [23]) was 3 (Herbicidal rate of 40% or more and less than 70%), the “herbicidal effect on P: chickweed (evaluation grade 0-5)” value (chickweed [24]) was 5 (Herbicidal rate of 90% or more (almost completely withered)) and the “Herbicidal effect by soil treatment, J: blackgrass” value (blackgrass [25]) was 3 (Herbicidal rate of 40% or more and less than 70%).
